Legend:
Type in all cases: cell-based, human
[1] = tested on: platelet function in whole blood; assay: Closure time under flow conditions, PFA-100 Col/ADP test cartridge; details: for Number of samples with closure times above the cut-off (n = 11): cut-off 115 seconds, ASA 30 μmol/L
Protocol: (§1) Venous blood was taken from 11 healthy donors and anticoagulated with sodium citrate (3.2% buffered Na citrate).
(§2) Aliquots of the citrated whole blood sample were treated in vitro with the P2Y(12) antagonist MRS 2395 (Sigma-Aldrich Chemie GmbH, Steinheim, Germany). For this purpose an ethanolic MRS 2395 stock solution (15 mg/mL) was mixed with the whole blood samples so that an end concentration of 100 μmol/L was obtained.
(§3) Further aliquots of the citrated whole blood samples were treated in vitro with the COX-1 inhibitor acetylsalicylic acid (abbr.: ASA; Sigma-Aldrich Chemie GmbH, Steinheim, Germany). For this purpose an aqueous ASA stock solution (1 mg/mL) was mixed with whole blood samples so that an end concentration of 30 μmol/L was obtained.
(§4) After addition of the reagents the blood samples were incubated at room temperature for 5 minutes.
(§5) Venous blood was taken from healthy donors and anticoagulated with sodium citrate (3.2% buffered Na citrate). The closure time determination was carried out for each whole blood sample in the PFA-100® apparatus. Samples from 186 donors were determined in duplicate with a Col/Epi PFA-100® test cartridge [see Example 1d)] and a Col/ADP PFA-100® test cartridge [see Example 1d)].
(§6) The reference ranges (normal range) for the Col/Epi closure time and the Col/ADP closure time were established in that the measurement value ranges determined in which 90% of the measurement values for the healthy subjects were found (90% central interval of the normal distribution of all measurements). This gave the following reference ranges for the closure times:
(§7) The upper reference limit of the reference range was defined as cut-off, i.e. as threshold value, for a platelet dysfunction. If the closure time of a patient sample deviates from the reference range it can indicate a platelet dysfunction. This means Col/Epi closure times that are greater than 158 seconds and Col/ADP closure times that are greater than 115 seconds indicate the presence of a platelet dysfunction within the sense of a reduced aggregation efficiency.
(§8) To determine the closure time using a Col/Epi PFA-100® test cartridge (2 μg of collagen and 10 μg of epinephrine on the partition member; 150 μm aperture diameter; Dade Behring Marburg GmbH, Marburg, Germany) and using a Col/ADP PFA-100® test cartridge (2 μg of collagen and 50 μg of ADP on the partition member; 150 μm aperture diameter; Dade Behring Marburg GmbH, Marburg, Germany) as measure of platelet function, whole blood samples described in Example 1a) were investigated in a PFA-100® apparatus (Platelet Function Analyzer-100, Dade Behring Marburg GmbH, Marburg, Germany).
(§9) Aliquots of the samples described in 1a) were taken and mixed according to the invention either with prostaglandin E1 (abbr.: PGE1) or with forskolin (both purchased from Sigma-Aldrich Chemie GmbH, Steinheim, Germany) for activating intracellular adenylate cyclases. For this purpose, the samples were mixed with an ethanolic PGE1 stock solution (0.05 mg/mL) or with an ethanolic forskolin stock solution (5 mg/mL) to reach a final concentration of 12.5 nM PGE1 or a final concentration of 1 μM forskolin. Further aliquots of the samples described in 1a) were not mixed with an activator of intracellular adenylate cyclases and served as control.
(§10) Then in each case 800 μl of the blood samples mixed with PGE1 or forskolin, or of the control samples were put into the reservoir of a Col/Epi or Col/ADP test cartridge (+37° C.) and incubated in the apparatus at +37° C. for 3 minutes. A partial vacuum of −40 mbar was generated by the apparatus, thus sucking the blood out of the reservoir through the capillary (diameter 200 μm) and finally through the opening (aperture) of the partition member into the measurement chamber. The closure time was determined as the time required until the aperture was closed by formation of a blood clot. […]

[2] = tested on: platelet function in whole blood; assay: Closure time under flow conditions, PFA-100 Col/Epi test cartridge; details: for Number of samples with closure times above the cut-off (n = 11): cut-off 158 seconds, ASA 30 μmol/L
Protocol: as §1, §2, §3, §4, §5, §6, §7, §8, §9, §10

[3] = tested on: platelet aggregation in platelet rich plasma; assay: ADP induced light transmission aggregometry (according to Born); details: 100 μmol/L MRS 2395 in vitro; PRP; 5 μM ADP
Protocol: as §1, §2, §4
In order to check whether the samples treated with MRS 2395 actually show a reduced platelet aggregation, platelet rich (PRP) and platelet poor (PPP) plasma was prepared from aliquots of the untreated and MRS 2395-treated whole blood samples described under Example 1a). Then the samples were treated with 5 μM ADP. The PPP samples were used as blank controls. The photometric measurement of the aggregation reaction was carried out in the automated coagulation apparatus BCT® (Dade Behring Marburg GmbH, Marburg, Germany) under continuous stirring (600 rpm). The platelet aggregation of the samples treated with MRS 2395 was reduced by a mean of 27% compared with the platelet aggregation of the untreated samples.

[4] = normal untreated whole blood, 12.5 nM PGE1 or 1 μM forskolin
[5] = +12.5 nM PGE1, MRS 2395 100 μmol/L
[6] = +1 μM forskolin, MRS 2395 100 μmol/L
[7] = +1 μM forskolin, MRS 2395 100 μmol/L, listed as ASA
[8] = Control (no activator), MRS 2395 100 μmol/L

Compound | prolongation of the closure times of the controls [1, 4] | prolongation of the closure times of the controls [2, 4] | Number of samples with closure times above the cut-off (n = 11) [1, 5] | Number of samples with closure times above the cut-off (n = 11) [1, 6] | Number of samples with closure times above the cut-off (n = 11) [1, 7] | Number of samples with closure times above the cut-off (n = 11) [1, 8] | Number of samples with closure times above the cut-off (n = 11) [2, 5] | Number of samples with closure times above the cut-off (n = 11) ([2]; +12.5 nM PGE1, MRS 2395 100 μmol/L, listed as ASA) | Number of samples with closure times above the cut-off (n = 11) [2, 6] | Number of samples with closure times above the cut-off (n = 11) [2, 7] | Number of samples with closure times above the cut-off (n = 11) [2, 8] | platelet aggregation reduced compared with the untreated samples (mean) [3]
CCCCC[C@H](O)/C=C/[C@H]1[C@H](O)CC(=O)[C@@H]1CCCCCCC(=O)O [prostaglandin E1] | Neither the amount of forskolin used nor the amount of prostaglandin E1 used led to a significant prolongation | significant prolongation | – | – | – | – | – | – | – | – | – | –
CC(=O)Oc1ccccc1C(=O)O [Acetylsalicylic acid, acetylsalicylic acid] | – | – | 4 | 0 | none | 1 | 11 | all | 11 | all | 8 | –
CNc1nc(Cl)nc2c1ncn2CC(COC(=O)C(C)(C)C)COC(=O)C(C)(C)C [MRS 2395, 2,2-dimethyl-propionic acid 3-(2-chloro-6-methylaminopurin-9-yl)-2-(2,2-dimethyl-propionyloxymethyl)-propyl ester] | – | – | – | 10 | – | 2 | – | – | 9 | – | 3 | 27%
